Assay results published in publication PMC3085955 (Journal of medicinal chemistry, 2011).

What was measured:
T. gondii RHΔhxgprt = type: cell-based, Toxoplasma gondii; conditions: for apicoplast replication: 1st infection cycle, T. gondii RHΔhxgprt
T. gondii YFP = assay: T. gondii replication assay in two successive infection cycles; type: cell-based, Toxoplasma gondii; conditions: exposure to less than 1 μM in the first cycle
cultured mammalian cells = conditions: cited from earlier work

Molecule	apicoplast replication (T. gondii RHΔhxgprt)	reduction in parasite titers by the end of the second infection cycle (T. gondii YFP)	concentration showing toxicity against cultured mammalian cells (cultured mammalian cells)	ratio of plastid to nuclear DNA (T. gondii RHΔhxgprt; either infection cycle)
CC[C@H]1OC(=O)[C@H](C)[C@@H](O[C@H]2C[C@@](C)(OC)[C@@H](O)[C@H](C)O2)[C@H](C)[C@@H](O[C@@H]2O[C@H](C)C[C@H](N(C)C)[C@H]2O)[C@](C)(O)C[C@@H](C)CN(C)[C@H](C)[C@@H](O)[C@]1(C)O [Compound 3, Azithromycin]	significantly impaired	> 2 fold	~100 µM	–
CC[C@H]1OC(=O)[C@H](C)[C@@H](O[C@H]2C[C@@](C)(OC)[C@@H](O)[C@H](C)O2)[C@H](C)[C@@H](O[C@@H]2O[C@H](C)C[C@H](N(C)C)[C@H]2O)[C@](C)(O)C[C@@H](C)CN(Cc2ccccc2)[C@H](C)[C@@H](O)[C@]1(C)O [Compound 11, N-benzyl-azithromycin]	significantly impaired	–	–	–
CC[C@H]1OC(=O)[C@H](C)[C@@H](O[C@H]2C[C@@](C)(OC)[C@@H](O)[C@H](C)O2)[C@H](C)[C@@H](O[C@@H]2O[C@H](C)C[C@H](N(C)C)[C@H]2O)[C@](C)(O)C[C@@H](C)CN(CCCc2ccccc2)[C@H](C)[C@@H](O)[C@]1(C)O [Compound 30, N-phenylpropyl-azithromycin]	significantly impaired	–	–	–
CCc1nc(N)nc(N)c1-c1ccc(Cl)cc1 [Pyrimethamine]	–	–	–	did not affect
Spiramycin	significantly impaired	–	–	–
